Data taken from patent US9688699B2, “3-(pyrimidine-2-yl)imidazo[1,2-a]pyridines” (Bayer Pharma Aktiengesellschaft, priority 2014, dated 2017).
pIC50: −log10 of the molar value. Counter-ions that a name gives are not always drawn.

What was measured:
[1] = molecular target: T1, human phosphodiesterase 5 (PDE 5) (Homo sapiens, UniProt O76074); test: Inhibition of human phosphodiesterase 5 (PDE 5) (B-3); assay type: biochemical; settings: PDE 5 preparation from human platelets; [8-3H] cGMP substrate, SPA; in some cases means of individual determinations
T1 construct: PDE 5 preparations are obtained from human platelets by disruption; from tissue; host or cells: human platelets (Mono Q ion exchange fractions with PDE 5 activity)
Description: B-3. Inhibition of Human Phosphodiesterase 5 (PDE 5)
PDE 5 preparations are obtained from human platelets by disruption (Microfluidizer®, 800 bar, 3 passes), followed by centrifugation (75 000 g, 60 min, 4° C.) and ion exchange chromatography of the supernatant on a Mono Q 10/10 column (linear sodium chloride gradient, elution with a 0.2-0.3M solution of sodium chloride in buffer (20 mM Hepes pH 7.2, 2 mM magnesium chloride). Fractions having PDE 5 activity are combined (PDE 5 preparation) and stored at −80° C.
To determine their in vitro action on human PDE 5, the test substances are dissolved in 100% DMSO and serially diluted. Typically, dilution series (1:3) from 200 μM to 0.091 μM are prepared (resulting final concentrations in the test: 4 μM to 0.0018 μM). In each case 2 μl of the diluted substance solutions are placed into the wells of microtitre plates (Isoplate-96/200 W; Perkin Elmer). Subsequently, 50 μl of a dilution of the above-described PDE 5 preparation are added. The dilution of the PDE 5 preparation is chosen such that during the later incubation less than 70% of the substrate are converted (typical dilution: 1:100; dilution buffer: 50 mM tris/hydrochloric acid pH 7.5, 8.3 mM magnesium chloride, 1.7 mM EDTA, 0.2% BSA). The substrate, [8-^3H] cyclic guanosine-3′,5′-monophosphate (1 μCi/μl; Perkin Elmer), is diluted 1:2000 with assay buffer (50 mM tris/hydrochloric acid pH 7.5, 8.3 mM magnesium chloride, 1.7 mM EDTA) to a concentration of 0.0005 μCi/μl. By addition of 50 μl (0.025 μCi) of the diluted substrate, the enzyme reaction is finally started. The test mixtures are incubated at room temperature for 60 min and the reaction is stopped by adding 25 μl of a suspension of 18 mg/ml yttrium scintillation proximity beads in water (phosphodiesterase beads for SPA assays, RPNQ 0150, Perkin Elmer). The microtitre plates are sealed with a film and left to stand at room temperature for 60 min. Subsequently, the plates are analysed for 30 s per well in a Microbeta scintillation counter (Perkin Elmer). IC50 values are determined using the graphic plot of the substance concentration against percentage PDE 5 inhibition.

[2] = molecular target: T2, recombinant guanylate cyclase reporter cell line (Rattus norvegicus, UniProt P19686+P20595); test: Effect on a recombinant guanylate cyclase reporter cell line (B-2); assay type: cell-based; settings: MEC = minimum effective concentration, in some cases mean values for individual determinations
T2 construct: expressed in transfected cells
T2 sequence (P19686 1-690): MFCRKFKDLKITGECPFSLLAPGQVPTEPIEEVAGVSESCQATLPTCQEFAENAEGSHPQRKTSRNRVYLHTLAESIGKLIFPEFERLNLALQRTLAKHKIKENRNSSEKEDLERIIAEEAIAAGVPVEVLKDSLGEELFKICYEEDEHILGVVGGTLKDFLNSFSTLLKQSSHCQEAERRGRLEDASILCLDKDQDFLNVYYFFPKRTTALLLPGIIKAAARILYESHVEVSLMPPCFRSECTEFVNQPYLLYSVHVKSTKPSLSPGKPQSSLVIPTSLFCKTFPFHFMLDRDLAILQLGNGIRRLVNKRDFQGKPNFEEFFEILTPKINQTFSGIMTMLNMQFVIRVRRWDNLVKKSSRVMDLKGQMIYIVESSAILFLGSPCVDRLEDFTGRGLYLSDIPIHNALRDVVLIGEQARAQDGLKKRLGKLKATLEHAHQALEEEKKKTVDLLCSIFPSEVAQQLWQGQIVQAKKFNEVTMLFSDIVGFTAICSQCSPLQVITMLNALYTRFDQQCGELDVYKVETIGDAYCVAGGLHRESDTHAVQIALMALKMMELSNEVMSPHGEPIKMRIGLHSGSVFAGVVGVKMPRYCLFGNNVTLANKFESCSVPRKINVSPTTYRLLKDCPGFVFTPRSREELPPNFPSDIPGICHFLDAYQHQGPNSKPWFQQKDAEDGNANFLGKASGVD
T2 sequence (P20595 1-619): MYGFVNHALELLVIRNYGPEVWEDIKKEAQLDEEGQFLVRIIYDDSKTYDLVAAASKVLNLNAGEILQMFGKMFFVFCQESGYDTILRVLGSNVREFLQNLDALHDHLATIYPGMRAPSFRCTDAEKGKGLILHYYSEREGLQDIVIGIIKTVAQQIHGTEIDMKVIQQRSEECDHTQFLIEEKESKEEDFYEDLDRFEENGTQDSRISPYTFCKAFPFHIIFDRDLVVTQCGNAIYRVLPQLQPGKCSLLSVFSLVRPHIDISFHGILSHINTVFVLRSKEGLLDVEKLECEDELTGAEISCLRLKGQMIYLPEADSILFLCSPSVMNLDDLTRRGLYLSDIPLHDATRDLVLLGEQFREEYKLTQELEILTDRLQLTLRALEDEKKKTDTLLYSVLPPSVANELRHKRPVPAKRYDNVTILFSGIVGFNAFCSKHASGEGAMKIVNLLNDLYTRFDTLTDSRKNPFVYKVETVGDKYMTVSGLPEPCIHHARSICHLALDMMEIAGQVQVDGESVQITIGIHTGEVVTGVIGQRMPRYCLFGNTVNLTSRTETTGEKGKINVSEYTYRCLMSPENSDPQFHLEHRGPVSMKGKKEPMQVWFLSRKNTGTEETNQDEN
Description: B-2. Effect on a Recombinant Guanylate Cyclase Reporter Cell Line
The cellular activity of the compounds according to the invention is determined using a recombinant guanylate cyclase reporter cell line, as described in F. Wunder et al., Anal. Biochem. 339, 104-112 (2005).
Representative MEC values (MEC=minimum effective concentration) for the compounds of the invention are shown in Table 1 below (in some cases as mean values for individual determinations): […]

Row | Compound | pIC50 [1] | MEC [2]
1 | Cc1nc2c(OCc3c(F)cccc3F)cccn2c1-c1nc2c(c(NC3CC(O)C3)n1)C(C)(C)C(=O)N2 (mixture of isomers) [Example 30, 2-{8-[(2,6-difluorobenzyl)oxy]-2-methylimidazo[1,2-a]pyridin-3-yl}-4-[(3-hydroxycyclobutyl)amino]-5,5-dimethyl-5,7-dihydro-6H-pyrrolo[2,3-d]pyrimidin-6-one [cis/trans mixture]] | 8.44 | 1 µM
2 | Cc1nc2c(OCc3c(F)cccc3F)cccn2c1-c1nc(I)c2c(n1)NC(=O)C2(C)C(F)(F)F (racemic) [Example 7, rac-2-{8-[(2,6-Difluorobenzyl)oxy]-2-methylimidazo[1,2-a]pyridin-3-yl}-4-iodo-5-methyl-5-(trifluoromethyl)-5,7-dihydro-6H-pyrrolo[2,3-d]pyrimidin-6-one trifluoroacetate (racemate)] | 6.23 | 2 µM
3 | Cc1nc2c(OCc3c(F)cccc3F)cccn2c1-c1nc(O)c2c(n1)NC(=O)C2(C)C(F)(F)F (racemic) [Example 8, rac-2-{8-[(2,6-Difluorobenzyl)oxy]-2-methylimidazo[1,2-a]pyridin-3-yl}-4-hydroxy-5-methyl-5-(trifluoromethyl)-5,7-dihydro-6H-pyrrolo[2,3-d]pyrimidin-6-one trifluoroacetate] | 6.92 | 1 µM
4 | CCCC(C)(N)CNc1nc(-c2c(C)nc3c(OCc4c(F)cccc4F)cccn23)nc2c1C(C)(C)C(=O)N2 (racemic) [Example 13, rac-4-[(2-Amino-2-methylpentyl)amino]-2-{8-[(2,6-difluorobenzyl)oxy]-2-methylimidazo[1,2-a]pyridin-3-yl}-5,5-dimethyl-5,7-dihydro-6H-pyrrolo[2,3-d]pyrimidin-6-one (racemate)] | 7.92 | 1 µM
5 | Cc1nc2c(OCc3c(F)cccc3F)cccn2c1-c1nc(NCC(O)C(F)(F)F)c2c(n1)NC(=O)C2(C)C (racemic) [Example 18, rac-2-{8-[(2,6-difluorobenzyl)oxy]-2-methylimidazo[1,2-a]pyridin-3-yl}-5,5-dimethyl-4-[(3,3,3-trifluoro-2-hydroxypropyl)amino]-5,7-dihydro-6H-pyrrolo[2,3-d]pyrimidin-6-one] | 7.72 | 1 µM
6 | Cc1nc2c(OCc3c(F)ccc(F)c3F)cccn2c1-c1nc(NCC(C)(C)N)c2c(n1)NC(=O)C2(C)C [Example 31, 4-[(2-Amino-2-methylpropyl)amino]-5,5-dimethyl-2-{2-methyl-8-[(2,3,6-trifluorobenzyl)oxy]imidazo[1,2-a]pyridin-3-yl}-5,7-dihydro-6H-pyrrolo[2,3-d]pyrimidin-6-one formate] | 8.92 | 

Next, values leading:

Row | pIC50 [1] | MEC [2] | Compound
7 | 8.52 |  | Cc1nc2c(OCc3c(F)ccc(F)c3F)cccn2c1-c1nc2c(c(C(=O)NCC(C)(N)C(F)(F)F)n1)C(C)(C)C(=O)N2 (racemic) [Example 57, rac-N-(2-amino-3,3,3-trifluoro-2-methylpropyl)-5,5-dimethyl-2-{2-methyl-8-[(2,3,6-trifluorobenzyl)oxy]imidazo[1,2-a]pyridin-3-yl}-6-oxo-6,7-dihydro-5H-pyrro1o[2,3-d]pyrimidine-4-carboxamide]
8 |  | 0.3 µM | Cc1nc2c(OCc3c(F)cccc3F)cccn2c1-c1nc2c(c(OCCO)n1)C(C)(C)C(=O)N2 [Example 47, 2-{8-[(2,6-Difluorobenzyl)oxy]-2-methylimidazo[1,2-a]pyridin-3-yl}-4-(2-hydroxyethoxy)-5,5-dimethyl-5,7-dihydro-6H-pyrrolo[2,3-d]pyrimidin-6-one]
9 | 6.37 |  | Cc1nc2c(OCc3c(F)ccc(F)c3F)cccn2c1-c1nc(C#CC2CC2)c2c(n1)NC(=O)C2(C)C [Example 70, 4-(Cyclopropylethynyl)-5,5-dimethyl-2-{2-methyl-8-[(2,3,6-trifluorobenzyl)oxy]imidazo[1,2-a]pyridin-3-yl}-5,7-dihydro-6H-pyrrolo[2,3-d]pyrimidin-6-one]
10 | 6.70 |  | Cc1nc2c(OCc3c(F)ccc(F)c3F)cccn2c1-c1nc(CCC2CC2)c2c(n1)NC(=O)C2(C)C [Example 71, 4-(2-Cyclopropylethyl)-5,5-dimethyl-2-{2-methyl-8-[(2,3,6-trifluorobenzyl)oxy]imidazo[1,2-a]pyridin-3-yl}-5,7-dihydro-6H-pyrrolo[2,3-d]pyrimidin-6-one]
11 |  | 3 µM | CCCc1nc(-c2c(C)nc3c(OCc4c(F)ccc(F)c4F)cccn23)nc2c1C(C)(C)C(=O)N2 [Example 72, 5,5-Dimethyl-2-{2-methyl-8-[(2,3,6-trifluorobenzyl)oxy]imidazo[1,2-a]pyridin-3-yl}-4-propyl-5,7-dihydro-6H-pyrrolo[2,3-d]pyrimidin-6-one]
12 | 7.66 |  | Cc1ncc(-c2nc(-c3c(C)nc4c(OCc5c(F)ccc(F)c5F)cccn34)nc3c2C(C)(C)C(=O)N3)s1 [Example 73, 5,5-Dimethyl-4-(2-methyl-1,3-thiazol-5-yl)-2-{2-methyl-8-[(2,3,6-trifluorobenzyl)oxy]imidazo[1,2-a]pyridin-3-yl}-5,7-dihydro-6H-pyrrolo[2,3-d]pyrimidin-6-one]
13 | 7.34 |  | Cc1nc2c(OCc3c(F)ccc(F)c3F)cccn2c1-c1nc2c(c(OCC3CC3)n1)C(C)(C)C(=O)N2 [Example 76, 4-(Cyclopropylmethoxy)-5,5-dimethyl-2-{2-methyl-8-[(2,3,6-trifluorobenzyl)oxy]imidazo[1,2-a]pyridin-3-yl}-5,7-dihydro-6H-pyrrolo[2,3-d]pyrimidin-6-one]
14 | 6.85 |  | Cc1nc2c(OCc3c(F)ccc(F)c3F)cccn2c1-c1nc2c(c(OCCC(F)(F)F)n1)C(C)(C)C(=O)N2 [Example 77, 5,5-Dimethyl-2-{2-methyl-8-[(2,3,6-trifluorobenzyl)oxy]imidazo[1,2-a]pyridin-3-yl}-4-(3,3,3-trifluoropropoxy)-5,7-dihydro-6H-pyrrolo[2,3-d]pyrimidin-6-one]
